# Measurements reported in patent US5223421A, “Identification of methionine Nα-acetyltransferase” (The General Hospital Corporation, priority 1990, dated 1993).
# Entries after “also recorded” stand apart in the source; their conditions may differ. Read-outs that look alike come from different tables or passages of the source. Ends that are not written are not given here.
# Columns and labels:
# [1] = tested on: methionine N^α -acetyltransferase from S. cerevisiae; format: biochemical, Saccharomyces cerevisiae; settings: for effect of divalent cation on M-N^α AT activity: 1 mM; for effect of ion or salt on M-N^α AT activity: concentration not given; for Enzyme Activity (%): 5 min room temperature, 50 mM HEPES pH 7.4, 1 mM DTT, substrate PAI (N=3)
# Protocol: (§1) N^α -acetyltransferase activity was determined as previously described [Lee et al., J. Biol. Chem. 263:14948-14955 (1988)]. Aliquots of the lysate or chromatographic fractions were added to 1.5 ml Eppendorf tubes containing a reaction mixture of 50 mM HEPES, pH 7.4, 150 mM KCl, 1 mM DTT, 25 μM [^3 H] acetyl coenzyme A (0.5 μCi) and 50 μM synthetic peptide with an adjusted final volume of 100 μl. The assay mixture was incubated at 30° C. for 30 min. The reaction was stopped by adding 17 μl of 0.5M acetic acid and chilled in an ice bath. The reaction samples were filtered through SP membrane discs (Cuno) (previously pre-swollen in 0.5M acetic acid), and then washed three times with 1 ml of 0.5M acetic acid on a Millipore 1225 sampling manifold. The partially dried membranes were placed in scintillation cocktail and counted with a Beckman LS 3801 scintillation counter.
# Yeast methionine acetyltransferase was incubated in the presence of various divalent cations at a room temperature for 5 min in 50 mM HEPES, pH 7.4 containing 1 mM DTT. The enzyme activity was determined under standard assay conditions using PAI (N=3), as described above.
# [2] = tested on: methionine N^α -acetyltransferase from S. cerevisiae; assay: Effect of protein modification reagents on enzyme activity; format: biochemical, Saccharomyces cerevisiae; settings: for Enzyme Activity (%): 30° C. 15 min, then dialyzed, substrate PAI (N=3)
# Protocol: as §1, with “counter. One unit of activity was defined as the amount of enzyme able to transfer 1 pmol of [^3 H] acetyl group from [^3 H] acetyl coenzyme A to synthetic peptide per min under standard enzyme assay conditions defined above.” for “counter.”
# In order to determine the possible catalytic role for different types of amino acid residues in the enzyme, various chemical modifications were carried out (Table 10). Yeast methionine acetyltransferase was incubated with each reagent at 30° C. for 15 min, dialyzed against 50 mM HEPES, pH 7.4, 150 mM, 1 mM DTT at 4° C. for 3 to 4 hr. The enzyme activity was determined under standard assay conditions using PAI (N=3), assayed as described above.
# [3] = target: T1, AAA1 N^α -acetyltransferase (N^α -AT) (Saccharomyces cerevisiae, UniProt P07347+P12945); assay: Relative activity of N^α -AT for N^α -acetylation of synthetic peptides; format: biochemical; settings: Table 6, influence of the amino terminal residue
# T1 sequence (P12945 2-854 limits assumed): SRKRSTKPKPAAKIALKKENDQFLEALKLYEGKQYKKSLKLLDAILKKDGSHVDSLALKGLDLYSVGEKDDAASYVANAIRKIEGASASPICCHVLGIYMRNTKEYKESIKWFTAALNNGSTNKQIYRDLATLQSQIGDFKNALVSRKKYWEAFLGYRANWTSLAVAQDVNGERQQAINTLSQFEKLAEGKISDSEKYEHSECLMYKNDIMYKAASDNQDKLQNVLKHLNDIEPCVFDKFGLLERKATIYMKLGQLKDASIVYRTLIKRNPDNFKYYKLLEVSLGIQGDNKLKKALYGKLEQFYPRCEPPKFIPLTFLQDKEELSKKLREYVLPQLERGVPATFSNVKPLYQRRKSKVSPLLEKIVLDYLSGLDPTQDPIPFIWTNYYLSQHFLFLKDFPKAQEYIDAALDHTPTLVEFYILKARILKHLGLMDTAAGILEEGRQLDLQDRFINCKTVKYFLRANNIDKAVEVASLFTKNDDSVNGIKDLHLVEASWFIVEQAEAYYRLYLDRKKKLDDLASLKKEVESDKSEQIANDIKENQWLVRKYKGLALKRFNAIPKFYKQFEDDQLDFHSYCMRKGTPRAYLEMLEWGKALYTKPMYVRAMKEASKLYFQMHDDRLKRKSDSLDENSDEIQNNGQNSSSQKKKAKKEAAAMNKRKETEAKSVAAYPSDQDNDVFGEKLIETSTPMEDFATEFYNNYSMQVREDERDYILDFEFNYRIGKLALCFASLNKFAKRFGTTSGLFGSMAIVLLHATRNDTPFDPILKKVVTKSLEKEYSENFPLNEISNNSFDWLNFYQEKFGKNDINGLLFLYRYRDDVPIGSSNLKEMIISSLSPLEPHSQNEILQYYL
# T1 sequence (P07347 1-238): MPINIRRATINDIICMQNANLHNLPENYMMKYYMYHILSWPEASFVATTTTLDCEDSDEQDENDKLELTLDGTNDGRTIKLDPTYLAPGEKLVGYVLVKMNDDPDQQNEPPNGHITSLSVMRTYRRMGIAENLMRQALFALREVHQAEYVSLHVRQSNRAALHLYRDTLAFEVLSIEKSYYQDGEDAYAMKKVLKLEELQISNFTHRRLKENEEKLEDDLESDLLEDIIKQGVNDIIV
# Protocol: as §1, with “-acetylt[…]” for “-acetyltransferase activity”, “counter. One unit of activity was defined as the amount of enzyme able to transfer 1 pmol of [^3 H] acetyl group from [^3 H] acetyl coenzyme A to synthetic peptide per min under standard enzyme assay conditions defined above.” for “counter.”
# In order to compare the relative specificity and activity of the methionine N^α -acetylt[…] (M-N^α -AT) of the present invention with the specificity and activity of the AAA1 N^α -acetyltransferase (N^α -AT) of Lee, F.-J. S., et al., J. Bacteriol. 171, (1989), U.S. Patent Application of John A. Smith, and Fang-Jen S. Lee, filed Oct. 25, 1989, entitled "ISOLATION OF STRAINS OF SAC[…] ALTERED N^α -ACETYLT[…]" (which references have been incorporated herein by reference) synthetic peptides were prepared. These peptides were assessed for their ability to serve as substrates for the two enzymes. In Table 6, the effect of the amino terminal amino acid on activity is investigated; in Table 7, the effect of the penultimate amino terminal amino acid on activity is investigated.
Compound,effect of ion or salt on M-N^α AT activity [1],Enzyme Activity (%) ([1]; salt 1 mM),Enzyme Activity (%) ([1]; salt 0.1 mM),Activity (%) (mean activity ± S.D.) N^a -AT [3],further results
[Ca+2].[Cl-].[Cl-] [CaCl2],did not affect enzyme activity,102,–,–,effect of divalent cation on M-N^α AT activity [1]: had no effect
[Cl][Cd][Cl] [CdCl2],–,0,72,–,effect of ion or salt on M-N^α AT activity ([1]; listed as Cd^2+): pronounced and concentration-dependent inhibition; also recorded: also inhibited; Enzyme Activity (%) ([1]; salt 0.01 mM): 103%
[Cl-].[Cl-].[Co+2] [CoCl2],pronounced and concentration-dependent inhibition,38,95,–,Enzyme Activity (%) ([1]; salt 0.01 mM): 106%
"CCOC(=O)OC(=O)OCC [DEPC, diethyl pyrocarbonate]",–,–,–,–,effect of reagent on M-N^α AT activity ([2]; concentration not given): nearly complete inactivation; Enzyme Activity (%) ([2]; reagent 0.05 mM): 59%; Enzyme Activity (%) ([2]; reagent 0.5 mM): 0%
O=S(=O)([O-])[O-].[Fe+2] [FeSO4],pronounced and concentration-dependent inhibition,40,93,–,Enzyme Activity (%) ([1]; salt 0.01 mM): 108%
"C[S+](C)Cc1cc([N+](=O)[O-])ccc1O.[Br-] [HNBS(CH3)2 -Br, dimethyl-(2-hydroxy-5-nitrobenzyl)sulfonium bromide]",–,–,–,–,effect of reagent on M-N^α AT activity ([2]; concentration not given): partially inactivated the enzyme; Enzyme Activity (%) ([2]; reagent 1.0 mM): 93%; Enzyme Activity (%) ([2]; reagent 10.0 mM): 62%
[Cl-].[Cl-].[Mg+2] [MgCl2],did not affect enzyme activity,98,105,–,–
O=S(=O)([O-])[O-].[Mg+2] [MgSO4],did not affect enzyme activity,97,102,–,–
[Mg+2] [Mg^2+],–,–,–,–,effect of divalent cation on M-N^α AT activity [1]: had no effect
[Cl][Mn][Cl] [MnCl2],did not affect enzyme activity,98,103,–,effect of divalent cation on M-N^α AT activity [1]: had no effect
CC(=O)n1ccnc1 [N-acetylimidazole],–,–,–,–,effect of reagent on M-N^α AT activity ([2]; concentration not given): without effect; Enzyme Activity (%) ([2]; reagent 1.0 mM): 100%; Enzyme Activity (%) ([2]; reagent 10.0 mM): 93%
"O=C1CCC(=O)N1Br [NBS, N-bromosuccinimide]",–,–,–,–,effect of reagent on M-N^α AT activity ([2]; 0.5 mM): partially inactivated the enzyme; effect of reagent on M-N^α AT activity ([2]; 5 mM): completely inactivated the enzyme; Enzyme Activity (%) ([2]; reagent 0.5 mM): 30%; Enzyme Activity (%) ([2]; reagent 5.0 mM): 0%
NO [hydroxylamine],–,–,–,–,"effect of reagent on M-N^α AT activity ([2]; concentration not given): slowly inactivated the enzyme; original enzyme activity recovered after diethyl pyrocarbonate inactivation ([2]; incubation 6 hr at room temperature with […] hydroxylamine, 250000 µM): ~ 50%"
FIPETQKGVIFYESHGKLEYKDIP (FIPETQKGVIFYESHGKLEYKDIP),–,–,–,9 ± 2,–
HIPETQKGVIFYESHGKLEYKDIP (HIPETQKGVIFYESHGKLEYKDIP; also: tritium label),–,–,–,19 ± 2,–
MIPETQKGVIFYESHGKLEYKDIP (MIPETQKGVIFYESHGKLEYKDIP),–,–,–,15 ± 2,–
PIPETQKGVIFYESHGKLEYKDIP (PIPETQKGVIFYESHGKLEYKDIP),–,–,–,70 ± 4,–
TIPETQKGVIFYESHGKLEYKDIP (TIPETQKGVIFYESHGKLEYKDIP),–,–,–,103 ± 5,–
VIPETQKGVIFYESHGKLEYKDIP (VIPETQKGVIFYESHGKLEYKDIP),–,–,–,69 ± 4,–
YIPETQKGVIFYESHGKLEYKDIP (YIPETQKGVIFYESHGKLEYKDIP),–,–,–,20 ± 2,–
